In patent US20260097047A1, “Small molecule inhibitors of the ribosome biogenesis factor NVL2” (Board of Regents, The University of Texas System, priority 2023, published 2026):
pIC50: −log10 of the molar value.

System: HCT116 cells
Assay: Cell viability assay (CellTiter-Glo, 72 hours) in HCT116 human colorectal cancer cells
Format: cell-based
Conditions: Homo sapiens, HCT-116; Table 1; HCT116, 72 hours; read-out: Activity
Procedure, shortened: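 2,000 cells/well adhered overnight, then compound added by digital dispenser with DMSO normalized to 0.5%. Viability read after 72 h at 37 °C by ATP-based CellTiter-Glo luminescence. IC50 from ten-point curves baseline-corrected to vehicle, five-parameter asymmetric least-squares fit.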

Row | pIC50 | Structure (SMILES)
1 | > 6.30 | C#CCOCCN1C(=O)c2ccccc2Sc2cc(NC(=O)N3CCC3)ccc21 [N-(11-Oxo-10-(2-(prop-2-yn-1-yloxy)ethyl)-10,11-dihydrodibenzo[b,f][1,4]thiazepin-7-yl) azetidine-1-carboxamide]
2 | > 6.30 | CC#CCN1C(=O)c2ccccc2Sc2cc(NC(=O)N3CCC3)ccc21 [Table 1: —CH2CCMe; azetidin-1-yl; CH; CH, N-(10-(But-2-yn-1-yl)-11-oxo-10,11-dihydrodibenzo[b,f][1,4]thiazepin-7-yl) azetidine-1-carboxamide]

Same assay, conditions: Homo sapiens, HCT-116; Table 3; HCT116, 72 hours; read-out: Activity

Row | pIC50 | Structure (SMILES)
3 | > 6.30 | C#CCOCCN1C(=O)c2ccccc2Sc2cc(NC(=O)Nc3ccccc3)ccc21 [Table 3: —(CH2)2OCH2CCH; Ph; CH/CH, 1-(11-Oxo-10-(2-(prop-2-yn-1-yloxy)ethyl)-10,11-dihydrodibenzo[b,f][1,4]thiazepin-7-yl)-3-phenylurea]
4 | > 6.30 | C#CCOCCN1C(=O)c2ccccc2Sc2cc(NC(=O)NC3CCCCC3)ccc21 [Table 3: —(CH2)2OCH2CCH; cHex; CH/CH, 1-Cyclohexyl-3-(11-oxo-10-(2-(prop-2-yn-1-yloxy)ethyl)-10,11-dihydrodibenzo[b,f][1,4]thiazepin-7-yl) urea]

Same assay, conditions: Homo sapiens, HCT-116; Table 5; HCT116, 72 hours; read-out: Activity

Row | Structure (SMILES) | pIC50
5 | CC#CCN1C(=O)c2ccccc2Sc2cc(Nc3cncnc3)ccc21 [10-(But-2-yn-1-yl)-7-(pyrimidin-5-ylamino)dibenzo[b,f][1,4]thiazepin-11 (10H)-one] | > 6.30
6 | CC#CCN1C(=O)c2ccc(C#N)cc2Sc2cc(Nc3cccnn3)ccc21 [10-(But-2-yn-1-yl)-11-oxo-7-(pyridazin-3-ylamino)-10,11-dihydrodibenzo[b,f][1,4]thiazepine-3-carbonitrile] | 5.30 to 6.00
7 | CCC/C=C/CN1C(=O)c2ccccc2Sc2cc(Nc3cc(C#N)ccn3)ccc21 [(E)-2-((10-(Hex-2-en-1-yl)-11-oxo-10,11-dihydrodibenzo[b,f][1,4]thiazepin-7-yl)amino) isonicotinonitrile] | 6.00 to 6.30
8 | CCC/C=C/CN1C(=O)c2ccccc2Sc2cc(Nc3cc(C4CC4)ccn3)ccc21 [(E)-7-((4-Cyclopropylpyridin-2-yl)amino)-10-(hex-2-en-1-yl)dibenzo[b,f][1,4]thiazepin-11(10H)-one] | 6.00 to 6.30
9 | CCC/C=C/CN1C(=O)c2ccccc2Sc2cc(Nc3nccc4ccccc34)ccc21 [(E)-10-(Hex-2-en-1-yl)-7-(isoquinolin-1-ylamino)dibenzo[b,f][1,4]thiazepin-11 (10H)-one] | > 6.30
10 | CCC/C=C/CN1C(=O)c2ccccc2Sc2cc(Nc3cc4ccccc4cn3)ccc21 [(E)-10-(Hex-2-en-1-yl)-7-(isoquinolin-3-ylamino)dibenzo[b,f][1,4]thiazepin-11 (10H)-one] | > 6.30
11 | CCC/C=C/CN1C(=O)c2ccccc2Sc2cc(Nc3ccccn3)ccc21 [(E)-10-(Hex-2-en-1-yl)-7-(pyridin-2-ylamino)dibenzo[b,f][1,4]thiazepin-11 (10H)-one] | 6.00 to 6.30
12 | CCC/C=C/CN1C(=O)c2ccccc2Sc2cc(Nc3ncccn3)ccc21 [(E)-10-(Hex-2-en-1-yl)-7-(pyrimidin-2-ylamino)dibenzo[b,f][1,4]thiazepin-11 (10H)-one] | 5.30 to 6.00

More lines, now with the values ahead:

Row | pIC50 | Structure (SMILES)
13 | > 6.30 | CCC/C=C/CN1C(=O)c2ccccc2Sc2cc(Nc3ncccc3C#N)ccc21 [(E)-2-((10-(Hex-2-en-1-yl)-11-oxo-10,11-dihydrodibenzo[b,f][1,4]thiazepin-7-yl)amino) nicotinonitrile]
14 | 6.00 to 6.30 | CCC/C=C/CN1C(=O)c2ccccc2Sc2cc(Nc3nccnc3C#N)ccc21 [(E)-3-((10-(Hex-2-en-1-yl)-11-oxo-10,11-dihydrodibenzo[b,f][1,4]thiazepin-7-yl)amino) pyrazine-2-carbonitrile]
15 | > 6.30 | CCC/C=C/CN1C(=O)c2ccccc2Sc2cc(Nc3ncc(C)cc3C)ccc21 [(E)-7-((3,5-Dimethylpyridin-2-yl)amino)-10-(hex-2-en-1-yl)dibenzo[b,f][1,4]thiazepin-11 (10H)-one]
16 | > 6.30 | CCC/C=C/CN1C(=O)c2ccccc2Sc2cc(Nc3ncccc3F)ccc21 [(E)-7-((3-Fluoropyridin-2-yl)amino)-10-(hex-2-en-1-yl)dibenzo[b,f][1,4]thiazepin-11 (10H)-one]
17 | > 6.30 | CCC/C=C/CN1C(=O)c2ccccc2Sc2cc(Nc3cc(F)ccn3)ccc21 [(E)-7-((4-Fluoropyridin-2-yl)amino)-10-(hex-2-en-1-yl)dibenzo[b,f][1,4]thiazepin-11(10H)-one]
18 | 6.00 to 6.30 | CCC/C=C/CN1C(=O)c2ccccc2Sc2cc(Nc3ncccc3C(F)(F)F)ccc21 [(E)-10-(Hex-2-en-1-yl)-7-((3-(trifluoromethyl)pyridin-2-yl)amino)dibenzo[b,f][1,4]thiazepin-11 (10H)-one]
19 | 6.00 to 6.30 | CCC/C=C/CN1C(=O)c2ccccc2Sc2cc(Nc3nccnc3OC)ccc21 [(E)-10-(Hex-2-en-1-yl)-7-((3-methoxypyrazin-2-yl)amino)dibenzo[b,f][1,4]thiazepin-11 (10H)-one]
20 | 6.00 to 6.30 | CCC/C=C/CN1C(=O)c2ccccc2Sc2cc(Nc3ncccc3OC)ccc21 [(E)-10-(Hex-2-en-1-yl)-7-((3-methoxypyridin-2-yl)amino)dibenzo[b,f][1,4]thiazepin-11 (10H)-one]
21 | > 6.30 | CCC/C=C/CN1C(=O)c2ccccc2Sc2cc(Nc3nccnc3C)ccc21 [(E)-10-(Hex-2-en-1-yl)-7-((3-methylpyrazin-2-yl)amino)dibenzo[b,f][1,4]thiazepin-11 (10H)-one]
22 | > 6.30 | CCC/C=C/CN1C(=O)c2ccccc2Sc2cc(Nc3ncccc3C)ccc21 [(E)-10-(Hex-2-en-1-yl)-7-((3-methylpyridin-2-yl)amino)dibenzo[b,f][1,4]thiazepin-11 (10H)-one]
23 | > 6.30 | CCC/C=C/CN1C(=O)c2ccccc2Sc2cc(Nc3cc(C(C)C)ccn3)ccc21 [(E)-10-(Hex-2-en-1-yl)-7-((4-isopropylpyridin-2-yl)amino)dibenzo[b,f][1,4]thiazepin-11 (10H)-one]
24 | > 6.30 | CCC/C=C/CN1C(=O)c2ccccc2Sc2cc(Nc3cc(OC)ccn3)ccc21 [(E)-10-(Hex-2-en-1-yl)-7-((4-methoxypyridin-2-yl)amino)dibenzo[b,f][1,4]thiazepin-11 (10H)-one]
25 | 6.00 to 6.30 | CCC/C=C/CN1C(=O)c2ccccc2Sc2cc(Nc3cc(C)ccn3)ccc21 [(E)-10-(Hex-2-en-1-yl)-7-((4-methylpyridin-2-yl)amino)dibenzo[b,f][1,4]thiazepin-11 (10H)-one]
26 | > 6.30 | CCC/C=C/CN1C(=O)c2ccccc2Sc2cc(Nc3cnccn3)ccc21 [(E)-10-(Hex-2-en-1-yl)-7-(pyrazin-2-ylamino)dibenzo[b,f][1,4]thiazepin-11 (10H)-one]

Same assay, conditions: Homo sapiens, HCT-116; Table 6; HCT116, 72 hours; read-out: Activity

Row | pIC50 | Structure (SMILES)
27 | > 6.30 | CC#CCN1C(=O)c2ccccc2Sc2cc(NC3COCC3C)cnc21 (centres unmarked) [11-(But-2-yn-1-yl)-3-((4-methyltetrahydrofuran-3-yl)amino)benzo[f]pyrido[3,2-b][1,4]thiazepin-10(11H)-one]
28 | > 6.30 | CC#CCN1C(=O)c2ccccc2Sc2cc(NC3CCOC3)cnc21 (centres unmarked) [11-(But-2-yn-1-yl)-3-((tetrahydrofuran-3-yl)amino)benzo[f]pyrido[3,2-b][1,4]thiazepin-10(11H)-one]

Same assay, conditions: Homo sapiens, HCT-116; Table 9; HCT116, 72 hours; read-out: Activity

Row | pIC50 | Structure (SMILES)
29 | > 6.30 | CC#CCN1C(=O)c2ccccc2C(C)c2cc(NC(=O)c3ccc4oc(=O)n(C)c4c3)ccc21 (centres unmarked) [N-(5-(But-2-yn-1-yl)-11-methyl-6-oxo-6,11-dihydro-5H-dibenzo[b,e]azepin-2-yl)-3-methyl-2-oxo-2,3-dihydrobenzo[d]oxazole-5-carboxamide]

Same assay, conditions: Table 1; HCT116, 72 hours; read-out: Activity

Row | pIC50 | Structure (SMILES)
30 | > 6.30 | CC#CCN1C(=O)c2ccccc2Sc2cc(NC(=O)N3CCC3)cnc21 [Table 1: —CH2CCMe; azetidin-1-yl; CH; N]
31 | > 6.30 | CC#CCN1C(=O)c2ccccc2Sc2cc(NC(=O)N3CCCCC3)cnc21 [Table 1: —CH2CCMe; piperidin-1-yl; CH; N]

Same assay, conditions: Table 2; HCT116, 72 hours; read-out: Activity

Row | pIC50 | Structure (SMILES)
32 | > 6.30 | CC#CCN1C(=O)c2ccccc2Sc2cc(NC(=S)N3CCC3)ccc21 [Table 2: —CH2CCMe; azetidin-1-yl; CH; CH]
33 | > 6.30 | CC#CCN1C(=O)c2ccccc2Sc2cc(NC(=S)N3CCC3)cnc21 [Table 2: —CH2CCMe; azetidin-1-yl; CH; N]
34 | > 6.30 | CC#CCN1C(=O)c2ccccc2Sc2cc(NC(=S)N3CCCCC3)cnc21 [Table 2: —CH2CCMe; piperidin-1-yl; CH; N]

Same assay, conditions: Table 3; HCT116, 72 hours; read-out: Activity

Row | pIC50 | Structure (SMILES)
35 | > 6.30 | CC#CCN1C(=O)c2ccccc2Sc2cc(NC(=O)Nc3cccc(OCF)c3)ccc21 [Table 3: —CH2CCMe; 3-FH2COPh; CH/CH]
36 | > 6.30 | CC#CCN1C(=O)c2ccccc2Sc2cc(NC(=O)NC3CC(COC)C3)ccc21 (centres unmarked) [Table 3: —CH2CCMe; 3-MeOCH2-cBu; CH/CH]
37 | > 6.30 | CC#CCN1C(=O)c2ccccc2Sc2cc(NC(=O)NC3CC(COC)C3)cnc21 (centres unmarked) [Table 3: —CH2CCMe; 3-MeOCH2-cBu; CH/N]
38 | > 6.30 | CC#CCN1C(=O)c2ccccc2Sc2cc(NC(=O)Nc3cccc(OC)c3)ccc21 [Table 3: —CH2CCMe; 3-MeOPh; CH/CH]

Same assay, conditions: Table 5; HCT116, 72 hours; read-out: Activity

Row | Structure (SMILES) | pIC50
39 | CCC/C=C/CN1C(=O)c2ccccc2Sc2cc(Nc3cc(C(F)(F)F)ccn3)ccc21 [(I)-10-(Hex-2-en-1-yl)-7-((4-(trifluoromethyl)pyridin-2-yl)amino)dibenzo[b,f][1,4]thiazepin-11 (10H)-one] | 5.30 to 6.00
40 | CC#CCN1C(=O)c2ccccc2Sc2cc(Nc3ncccc3C(=O)OC)ccc21 [Methyl 2-((10-(but-2-yn-1-yl)-11-oxo-10,11-dihydrodibenzo[b,f][1,4]thiazepin-7-yl)amino) nicotinate] | 5.30 to 6.00

Same assay, conditions: Table 7; cell viability assay, CellTiter-Glo, 72 hours; scaffold drawing 42 with R^2, R^3, X/Y, Z; read-out: Activity

Row | pIC50 | Structure (SMILES)
41 | > 6.30 | CCCCCCN1C(=O)c2ccccc2Sc2cc(NC(=O)c3ccoc3)ccc21 [-nHexyl; furan-3-yl; CH/CH; S]
